Assays:
[1] = target: T1, Rat SERT (Rattus norvegicus, UniProt P31652); assay: Rat brain SERT [3H]-citalopram binding; details: rat brain membranes, 0.6 nM [3H]-Citalopram, 60 min at 25° C.
T1 construct: A rat brain without cerebellum (Zivic Laboratories, Inc.—Pittsburgh, Pa.) was homogenized; tissue Zivic Laboratories, Inc; host or cells: rat brain without cerebellum, membrane preparation
Protocol: The supernatant was removed and re-centrifuged at 15,000 rpm for 30 min. […] Membranes were incubated with 0.6 nM [^3H]-Citalopram plus/minus test compounds for 60 min at 25° C. and harvested by rapid filtration over GF/C glass fiber filters (pretreated with 0.3% polyethylenimine) followed by four washes with ice-cold buffer.

[2] = target: T2, human H3 receptor (Homo sapiens, UniProt Q9Y5N1); assay: Cyclic AMP accumulation (β-galactosidase reporter); format: cell-based; details: for pA2: SK-N-MC cells expressing human H3 receptor and reporter, histamine agonist, forskolin 5 μM, Schild regression of pEC50 values
T2 construct: expressed in transfected cells
Protocol: Sublines of SK—N-MC cells were created that expressed a reporter construct and the human H3 receptor. The reporter gene (β-galactosidase) is under the control of multiple cyclic AMP responsive elements. In 96-well plates, histamine was added directly to the cell media followed 5 min later by an addition of forskolin (5 μM final concentration). When appropriate, antagonists were added 10 min prior to agonist addition. After a 6-h incubation at 37° C., the media was aspirated and the cells washed with 200 μL of phosphate-buffered saline followed by a second aspiration. Cells were lysed with 25 μL 0.1× assay buffer (10 mM Na-phosphate, pH 8, 0.2 mM MgSO4, 0.01 mM MnCl2) and incubated at rt for 10 min. […] Color was developed using 25 μL of 1 mg/mL substrate solution (chlorophenolred β-D galactopyranoside; Roche Molecular Biochemicals, Indianapolis, Ind.).

[3] = target: T2, human H3 receptor; assay: H3 receptor binding; details: cloned human H3 receptor stably expressed in SK-N-MC cells
[4] = target: T3, human SERT (Homo sapiens, UniProt P31645); assay: Human SERT 3H-citalopram binding; details: HEK293 membranes expressing the human SERT, rt 1 h
T3 construct: expressed in transfected cells; host or cells: HEK293 membranes
Protocol: Homogenized HEK293 (Human Embryonic Kidney) membranes expressing the human SERT were incubated with ^3H-citalopram (SERT) at rt for 1 h in 50 mM Tris, 120 mM NaCl, 5 mM KCl (pH 7.4). […] The membranes were washed and the radioactivity was counted as above.

T1 sequence (P31652 whole entry): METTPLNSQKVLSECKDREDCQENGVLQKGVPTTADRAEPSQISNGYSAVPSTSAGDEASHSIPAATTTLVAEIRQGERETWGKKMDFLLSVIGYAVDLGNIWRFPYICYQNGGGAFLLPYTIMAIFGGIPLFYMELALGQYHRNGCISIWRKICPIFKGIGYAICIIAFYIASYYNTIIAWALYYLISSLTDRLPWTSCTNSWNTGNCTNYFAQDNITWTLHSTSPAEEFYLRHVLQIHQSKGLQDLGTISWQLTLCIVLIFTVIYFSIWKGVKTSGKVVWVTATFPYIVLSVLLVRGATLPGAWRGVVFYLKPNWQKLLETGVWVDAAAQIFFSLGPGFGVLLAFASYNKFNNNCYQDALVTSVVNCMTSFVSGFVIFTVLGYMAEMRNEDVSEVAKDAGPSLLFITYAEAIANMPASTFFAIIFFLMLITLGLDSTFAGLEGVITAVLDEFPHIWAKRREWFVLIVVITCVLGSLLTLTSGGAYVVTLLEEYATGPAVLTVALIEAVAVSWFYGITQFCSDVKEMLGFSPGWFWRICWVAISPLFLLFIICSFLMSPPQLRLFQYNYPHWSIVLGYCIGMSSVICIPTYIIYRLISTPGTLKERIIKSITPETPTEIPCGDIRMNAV
T2 sequence (Q9Y5N1 whole entry): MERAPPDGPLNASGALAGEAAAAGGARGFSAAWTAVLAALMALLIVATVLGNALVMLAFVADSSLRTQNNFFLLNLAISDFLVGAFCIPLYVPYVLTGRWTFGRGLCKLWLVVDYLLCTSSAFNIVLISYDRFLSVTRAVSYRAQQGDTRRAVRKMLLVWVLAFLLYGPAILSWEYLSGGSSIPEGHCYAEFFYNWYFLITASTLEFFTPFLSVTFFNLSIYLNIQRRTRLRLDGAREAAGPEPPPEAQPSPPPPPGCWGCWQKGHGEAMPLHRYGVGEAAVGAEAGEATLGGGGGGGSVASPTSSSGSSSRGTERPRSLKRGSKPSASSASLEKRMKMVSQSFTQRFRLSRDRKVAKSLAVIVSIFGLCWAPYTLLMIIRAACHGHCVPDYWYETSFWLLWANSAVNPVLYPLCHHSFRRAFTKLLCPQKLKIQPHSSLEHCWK
T3 sequence (P31645 whole entry): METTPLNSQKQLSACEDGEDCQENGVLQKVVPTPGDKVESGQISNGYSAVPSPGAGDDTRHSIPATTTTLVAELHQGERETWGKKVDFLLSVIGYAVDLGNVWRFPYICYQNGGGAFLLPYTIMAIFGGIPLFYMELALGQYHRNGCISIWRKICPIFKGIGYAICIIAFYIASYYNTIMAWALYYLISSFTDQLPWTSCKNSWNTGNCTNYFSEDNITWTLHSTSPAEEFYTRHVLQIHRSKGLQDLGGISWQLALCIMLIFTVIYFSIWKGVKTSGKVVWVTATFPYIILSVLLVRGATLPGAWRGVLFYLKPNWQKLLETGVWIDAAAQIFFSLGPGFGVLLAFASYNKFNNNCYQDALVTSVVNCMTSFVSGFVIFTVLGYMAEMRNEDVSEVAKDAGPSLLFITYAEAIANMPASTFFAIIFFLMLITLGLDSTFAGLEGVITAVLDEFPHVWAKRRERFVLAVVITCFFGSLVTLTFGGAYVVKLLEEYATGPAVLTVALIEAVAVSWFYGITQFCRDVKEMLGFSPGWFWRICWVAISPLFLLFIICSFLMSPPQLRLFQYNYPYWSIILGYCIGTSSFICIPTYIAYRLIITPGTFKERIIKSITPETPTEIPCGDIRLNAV

| Structure (SMILES) | Ki [1] [nM] | pA2 [2] | Ki [3] [nM] | Ki [4] [nM] | Kb ([2]; read-out: pA2 (converted)) [nM] |
| --- | --- | --- | --- | --- | --- |
| CNCc1cc(C#CCCN(C)C2CC2)ccc1Oc1ccc(SC)cc1 [Example 16, Cyclopropyl-methyl-{4-[3-methylaminomethyl-4-(4-methylsulfanyl-phenoxy)-phenyl]-but-3-ynyl}-amine] | 1.3 | 9.10 | 6.1 | 1.1 |  |
| CNCc1cc(C#CCCN2CCOCC2)ccc1Oc1ccccn1 [Example 30, Methyl-[5-(4-morpholin-4-yl-but-1-ynyl)-2-(pyridine-2-yloxy)-benzyl]-amine] | 200 |  | 6 |  | 3.16 |
| CNCc1cc(C#CCCN2CCOCC2)ccc1Oc1cccc(F)c1 [Example 8, [2-(3-Fluoro-phenoxy)-5-(4-morpholin-4-yl-but-1-ynyl)-benzyl]-methyl-amine] | 10 | 8.45 | 3 | 24 |  |
| CNCc1cc(C#CCCN2CCC(F)CC2)ccc1Oc1ccc(Cl)c(Cl)c1 [Example 29, {2-(3,4-Dichloro-phenoxy)-5-[4-(4-fluoro-piperidin-1-yl)-but-1-ynyl]-benzyl}-methyl-amine] | 2.1 |  | 14 | 27 |  |
| CNCc1cc(C#CCCN2CCOCC2)ccc1Oc1ccc(C)nc1 [Example 24, Methyl-[2-(6-methyl-pyridin-3-yloxy)-5-(4-morpholin-4-yl-but-1-ynyl)-benzyl]-amine] | 1.9 |  | 4 | 5 |  |
| CNCc1cc(C#CCCN2CCN(C(C)C)C(=O)C2)ccc1Oc1ccc(SC)cc1 [Example 25, 1-Isopropyl-4-{4-[3-methylaminomethyl-4-(4-methylsulfanyl-phenoxy)-phenyl]-but-3-ynyl}-piperazin-2-one] | 1 |  | 1870 | 1.2 |  |
| CNCc1cc(C#CCCNC2CC2)ccc1Oc1ccc(Cl)c(Cl)c1 [Example 15, Cyclopropyl-{4-[4-(3,4-dichloro-phenoxy)-3-methylaminomethyl-phenyl]-but-3-ynyl}-amine] | 1.8 |  | 17 | 1.4 |  |
| CNCc1cc(C#CCCN2CCSCC2)ccc1Oc1ccc(Cl)c(Cl)c1 [Example 26, [2-(3,4-Dichloro-phenoxy)-5-(4-thiomorpholin-4-yl-but-1-ynyl)-benzyl]-methyl-amine] | 5.7 |  | 13 | 6.7 |  |
| CNCc1cc(C#CCCN2CCCN(C(C)C)CC2)ccc1Oc1ccc(SC)cc1 [Example 20, [5-[4-(4-Isopropyl-[1,4]diazepan-1-yl)-but-1-ynyl]-2-(4-methylsulfanyl-phenoxy)-benzyl]-methyl-amine] | 0.7 |  | 93 | 3.6 |  |
| CNCc1cc(C#CCCN2CCN(C(C)C)CC2)ccc1Oc1ccc(SC)cc1 [Example 10, [5-[4-(4-Isopropyl-piperazin-1-yl)-but-1-ynyl]-2-(4-methylsulfanyl-phenoxy)-benzyl]-methyl-amine] | 0.5 |  | 31 | 13 |  |
| CNCc1cc(C#CCCN(C)C2CC2)ccc1Oc1ccc(Cl)c(Cl)c1 [Example 18, Cyclopropyl-{4-[4-(3,4-dichloro-phenoxy)-3-methylaminomethyl-phenyl]-but-3-ynyl}-methyl-amine] | 6.4 |  | 9.7 | 5.9 |  |
| CNCc1cc(C#CCCNC2CC2)ccc1Oc1ccc(SC)cc1 [Example 14, Cyclopropyl-{4-[3-methylaminomethyl-4-(4-methylsulfanyl-phenoxy)-phenyl]-but-3-ynyl}-amine] | 0.3 |  | 17 | 12 |  |
| CNCc1cc(CCCCN2CCSCC2)ccc1Oc1ccc(SC)cc1 [Example 34, Methyl-[2-(4-methylsulfanyl-phenoxy)-5-(4-thiomorpholin-4-yl-butyl)-benzyl]-amine] | 0.9 |  | 9.7 | 1.9 |  |

— patent publication US7767666B2, “Butyl and butynyl benzyl amine compounds” (Janssen Pharmaceutica NV, priority 2006, dated 2010)
